Test systems include CAKI-1 renal; HCT-15 colon; MALME-3M melanoma; NCI-H23 lung; OVCAR-3 ovarian; PC-3 prostate; RPMI-8226 leukemia; SF-539 CNS; SK-MEL-28 melanoma; UO-31 renal.
Common to all, as to assay: growth of human tumour cells (NCI), 48 h

The values below come from PubChem BioAssay (NCI).

“And” between values parts separate entries of the source, which are not always exact repeats. Equal entries are not always repeated.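 Method: 48-hour compound exposure of cells in 96-well plates, five concentrations, linear interpolation of endpoints. At the GI50, growth is halved. At the TGI there is no net growth.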 Bounds are passed on as bounds.

For `CN1CCN(CCCNC(=O)c2c3c(n4ccccc24)C(=O)c2ncccc2C3=O)CC1`, the GI50 with CAKI-1 renal is 6.76 µM; in the assay on HCT-15 colon, 1.25 µM; in the assay on MALME-3M melanoma it was 376 nM; in the assay on NCI-H23 lung it was 674 nM; in the assay on OVCAR-3 ovarian, 400 nM; in the assay with PC-3 prostate, 1370 nM. Besides, the GI50 in the assay on RPMI-8226 leukemia was 3.02 µM; with SF-539 CNS, 1990 nM; with SK-MEL-28 melanoma, 4.57 µM; in the assay on UO-31 renal it was 1.81 µM. Besides, the TGI with CAKI-1 renal came out at 46.3 µM; in the assay on HCT-15 colon, 8.47 µM; with MALME-3M melanoma it was 0.99 µM; in the assay on NCI-H23 lung it was 3.08 µM; with OVCAR-3 ovarian it was 3.53 µM; in the assay on PC-3 prostate, 9 µM. The TGI was more than 24.4 µM with RPMI-8226 leukemia, 6.56 µM with SF-539 CNS, 19.1 µM in the assay on SK-MEL-28 melanoma and 30.7 µM in the assay with UO-31 renal.

As to `Cc1ccc(/C=N/NC(=O)c2ccccc2Oc2ccccc2)o1`, the GI50 in the assay on CAKI-1 renal is 34.1 µM; in the assay with HCT-15 colon, 37.9 µM; with MALME-3M melanoma, 36800 nM; in the assay with NCI-H23 lung it was 39200 nM; with OVCAR-3 ovarian, 40100 nM; in the assay on PC-3 prostate, 30300 nM. For the same molecule, the GI50 with RPMI-8226 leukemia is 23.8 µM; with SF-539 CNS it was more than 83600 nM; in the assay on SK-MEL-28 melanoma, 36.6 µM; in the assay with UO-31 renal, 44.8 µM. Besides, the TGI in the assay with CAKI-1 renal, in the assay with HCT-15 colon, with MALME-3M melanoma, with NCI-H23 lung, in the assay with OVCAR-3 ovarian and in the assay with PC-3 prostate was more than 100 µM in each case. The TGI in the assay on RPMI-8226 leukemia is more than 88.4 µM; with SF-539 CNS it was more than 100 µM; with SK-MEL-28 melanoma it was more than 100 µM; in the assay with UO-31 renal, more than 100 µM.

In the case of `O=C(O)CCC(c1ccccc1)(c1ccccc1)c1ccccc1`, in the assay with CAKI-1 renal, the GI50 is 66.4 µM. The TGI in the assay on CAKI-1 renal was more than 100 µM; with HCT-15 colon, more than 100 µM; in the assay on MALME-3M melanoma, more than 100 µM; in the assay with NCI-H23 lung, more than 100 µM; in the assay on OVCAR-3 ovarian, more than 69.6 µM; in the assay with PC-3 prostate, more than 100 µM. The TGI in the assay on RPMI-8226 leukemia is more than 94.3 µM; in the assay with SF-539 CNS, more than 100 µM; in the assay on SK-MEL-28 melanoma it was more than 100 µM; in the assay on UO-31 renal, more than 100 µM.

As for `COc1cccc2c1C(=O)c1c(O)c3c(c(O)c1C2=O)C[C@@](O)(C(=O)CO)CC3OC1CC(N)C(OC2CCCCO2)C(C)O1` (stereo partly drawn), the GI50 with CAKI-1 renal was 0.523 µM; with HCT-15 colon, 0.034 µM; with MALME-3M melanoma, 3.77 nM; with NCI-H23 lung it was 21.8 nM; with OVCAR-3 ovarian, 70.9 nM; in the assay on RPMI-8226 leukemia, 0.00394 µM. In addition, the figures for the GI50 in the assay with SF-539 CNS and in the assay with SK-MEL-28 melanoma were 3.52 nM and 0.113 µM, respectively. The TGI was 5.38 µM and 2.76 µM with CAKI-1 renal; 2.36 µM and 13.3 µM in the assay with HCT-15 colon; 0.302 µM and 2.33 µM with NCI-H23 lung; 0.363 µM in the assay on PC-3 prostate; 5.46 µM in the assay with UO-31 renal.

`N#C/C(=C\c1cc(O)c(O)c(O)c1)C(N)=O`: the TGI with CAKI-1 renal, in the assay with HCT-15 colon, in the assay with MALME-3M melanoma, with NCI-H23 lung, in the assay with OVCAR-3 ovarian and with PC-3 prostate was more than 100 µM in each case. The TGI in the assay with RPMI-8226 leukemia, in the assay on SF-539 CNS, with SK-MEL-28 melanoma and with UO-31 renal was more than 100 µM in each case.

As to `CNC(=O)ON(C(C)=O)C(=O)NC`, the TGI in the assay on CAKI-1 renal was 146 µM; in the assay with HCT-15 colon, 109 µM; with MALME-3M melanoma, 129 µM; in the assay with NCI-H23 lung, 156 µM; in the assay with OVCAR-3 ovarian it was 140 µM; in the assay on PC-3 prostate, 60.7 µM. Besides, the TGI is > 77.2 µM and 111 µM in the assay on RPMI-8226 leukemia; 145 µM in the assay with SF-539 CNS; 159 µM with SK-MEL-28 melanoma; 114 µM with UO-31 renal. For the same molecule, the GI50 was more than 76.4 µM with HCT-15 colon; more than 78600 nM in the assay on MALME-3M melanoma; more than 81900 nM with OVCAR-3 ovarian; 41.4 µM and 25.2 µM in the assay on RPMI-8226 leukemia.

On to `CC(C)(C)[Si](C)(C)OCC1OC(n2cnc3c(=O)[nH]cnc32)CC1O` (stereo not drawn), for which the TGI with CAKI-1 renal, in the assay with HCT-15 colon, with MALME-3M melanoma, in the assay with NCI-H23 lung, with OVCAR-3 ovarian and with PC-3 prostate was more than 100 µM throughout. The TGI in the assay on RPMI-8226 leukemia, in the assay on SF-539 CNS, with SK-MEL-28 melanoma and in the assay on UO-31 renal was more than 100 µM each time.

In the case of `CCN(CC)CCNC(=O)c1cccc2c1-c1ccccc1C2=O`, the GI50 with CAKI-1 renal is more than 100 µM; with HCT-15 colon, more than 100 µM; in the assay with MALME-3M melanoma, more than 100000 nM; in the assay with NCI-H23 lung, more than 100000 nM; with OVCAR-3 ovarian it was more than 100000 nM; with PC-3 prostate, more than 100000 nM. Besides, the GI50 with RPMI-8226 leukemia was 66.3 µM; in the assay with SF-539 CNS, 95100 nM; in the assay with SK-MEL-28 melanoma, more than 100 µM; with UO-31 renal it was more than 100 µM. The TGI in the assay on CAKI-1 renal, in the assay on HCT-15 colon, with MALME-3M melanoma, in the assay on NCI-H23 lung, with OVCAR-3 ovarian and in the assay with PC-3 prostate was more than 100 µM in each case. In addition, the TGI in the assay on RPMI-8226 leukemia, in the assay with SF-539 CNS, with SK-MEL-28 melanoma and in the assay with UO-31 renal was more than 100 µM in each case.

For the molecule `Cc1ccc(C[As+](c2ccccc2)(c2ccccc2)c2ccccc2)cc1`, the GI50 in the assay with CAKI-1 renal was 8.85 µM; in the assay with HCT-15 colon it was 13 µM; in the assay on MALME-3M melanoma, 297 nM; with NCI-H23 lung it was 1020 nM; in the assay with OVCAR-3 ovarian it was 611 nM; with PC-3 prostate, 409 nM. For the same molecule, the GI50 with RPMI-8226 leukemia is 0.218 µM; in the assay with SF-539 CNS, 1710 nM; in the assay with SK-MEL-28 melanoma, 0.927 µM; with UO-31 renal, 12.4 µM. The TGI is 43.9 µM in the assay with CAKI-1 renal; more than 100 µM with HCT-15 colon; 11.6 µM in the assay on MALME-3M melanoma; 9.36 µM in the assay on NCI-H23 lung; 13.9 µM in the assay on OVCAR-3 ovarian; 10.4 µM with PC-3 prostate. Moreover, the TGI was 3.24 µM in the assay on RPMI-8226 leukemia, 28.3 µM in the assay on SF-539 CNS, 18.5 µM in the assay with SK-MEL-28 melanoma and 97.4 µM in the assay on UO-31 renal.
